Assay in all cases: drug sensitivity score (DSS) from 5-dose viability curve (DSS (area-based score, 0 = no response)); higher = more sensitive (stronger viability inhibition); extreme values may be limits of the assay
In experiment [1] the test system is MDCK wild-type - doxycycline. To be noted: doxycycline: none; 72 h. The method in brief: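 An oncology library of 528 drugs was pre-spotted at five doses (1-10,000 nM) in 384-well plates, and parental MDCK cells without doxycycline were added at 2000 cells/well. The plates were kept at 37 °C for 72 h. Drug sensitivity scores were obtained by fitting dose-response curves in the Breeze pipeline to CellTiter-Glo viability readings scaled per plate between vehicle and positive controls.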

Experiment [2] deals with MDCK wild-type + doxycycline. To be noted: doxycycline: 10 ng/mL; 72 h. An outline of the steps:
(§1)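 After 72 h at 37 °C on 384-well plates pre-spotted with 528 oncology drugs at five doses (1-10,000 nM), parental and doxycycline-inducible MDCK cells were assessed; both lines had been given 10 ng/mL doxycycline in the medium before seeding at 2000 cells/well. Viability was taken from CellTiter-Glo luminescence scaled per plate to vehicle and positive controls, and drug sensitivity scores were derived from dose-response fits in the Breeze pipeline.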

Experiment [3] has as its system MDCK p60AmotL2-inducible + doxycycline (p60AmotL2 expressing). Particulars: doxycycline: 10 ng/mL; 72 h. An outline of the steps:
as §1

SMILES strings stand for the structures.

As to `Nc1cccc2c1C(=O)N(C1CCC(=O)NC1=O)C2=O` (stereo not given) [Pomalidomide], the drug sensitivity score in experiment [1], in experiment [2] and in experiment [3] was 0 each time.

For `C=CC(=O)N1CCC(Oc2cc3c(Nc4ccc(Cl)c(Cl)c4F)ncnc3cc2OC)CC1` [Poziotinib], the drug sensitivity score in experiment [1] was 9.2; in experiment [2], 14.3; in experiment [3], 27.9.

Turning to `CCCCc1nc2cc(/C=C/C(=O)NO)ccc2n1CCN(CC)CC` [Pracinostat], the values for the drug sensitivity score in experiment [1], in experiment [2] and in experiment [3] were 15, 15.9 and 17.7, respectively.

`CC[C@H](C)C(=O)O[C@H]1C[C@H](O)C=C2C=C[C@H](C)[C@H](CC[C@@H](O)C[C@@H](O)CC(=O)O)[C@H]21` [Pravastatin]: the drug sensitivity score in experiment [1], in experiment [2] and in experiment [3] was 0 in each case.

`C[C@]12C=CC(=O)C=C1CC[C@@H]1[C@@H]2[C@@H](O)C[C@@]2(C)[C@H]1CC[C@]2(O)C(=O)CO` [Prednisolone]: the results for the drug sensitivity score in experiment [1], in experiment [2] and in experiment [3] were 1.2, 0 and 0, respectively.

Take `COc1cccc(OCCCN)c1-c1cc(Nc2cnc(C#N)cn2)n[nH]1` [Prexasertib]: the drug sensitivity score in experiment [1] was 0.8; in experiment [2], 2.2; in experiment [3] it was 3.5.

With `Cn1cc(CNCC2CCN(c3ncc(C(=O)NO)cn3)CC2)c2ccccc21` [Quisinostat], the drug sensitivity score stood at 9.8 in experiment [1], 8.6 in experiment [2] and 12.7 in experiment [3].

With `CC(C)(C)c1cc(NC(=O)Nc2ccc(-c3cn4c(n3)sc3cc(OCCN5CCOCC5)ccc34)cc2)no1` [Quizartinib], the drug sensitivity score in experiment [1] was found to be 3.3; in experiment [2] it was 3; in experiment [3] it was 3.9.

Consider `Nc1cc(F)ccc1NC(=O)/C=C/c1cnn(C/C=C/c2ccccc2)c1` [RGFP966], for which the results for the drug sensitivity score in experiment [1], in experiment [2] and in experiment [3] were 0, 0 and 1, respectively.

Consider `COC(=O)c1ccc([C@H]2c3[nH]c4ccccc4c3C[C@H](C(=O)OC)N2C(=O)CCl)cc1` [RSL3], for which the drug sensitivity score in experiment [1], in experiment [2] and in experiment [3] was 0 each time.

Regarding `Cc1cnc(NC(=O)Nc2cc(Br)c(C)cc2OC[C@@H]2CNCCO2)cn1` [Rabusertib], the drug sensitivity score in experiment [1], in experiment [2] and in experiment [3] was 0 in each case.

As for `Cc1cn(-c2cc(NC(=O)c3ccc(C)c(Nc4nccc(-c5cnccn5)n4)c3)cc(C(F)(F)F)c2)cn1` [Radotinib], the drug sensitivity score in experiment [1], in experiment [2] and in experiment [3] was 0 throughout.

As for `CC(C)(C)Cn1c(N)nc2ccc(-c3[nH]c(C(C)(C)C)nc3-c3ccc(F)cc3)nc21` [Ralimetinib], the values for the drug sensitivity score in experiment [1], in experiment [2] and in experiment [3] were 0, 3.5 and 4.4, respectively.

As for `O=C(c1ccc(OCCN2CCCCC2)cc1)c1c(-c2ccc(O)cc2)sc2cc(O)ccc12` [Raloxifene], the drug sensitivity score in experiment [1] amounted to 5.2; in experiment [2] it was 5.2; in experiment [3], 6.1.

In the case of `Cc1nc(=O)c2cc(CN(C)c3ccc(C(=O)N[C@@H](CCC(=O)O)C(=O)O)s3)ccc2[nH]1` [Raltitrexed], the figures for the drug sensitivity score in experiment [1], in experiment [2] and in experiment [3] were 3, 3.3 and 5, respectively.

On to `Cn1nccc1Nc1nccc(-c2ccn([C@H](CO)c3ccc(Cl)c(F)c3)c(=O)c2)n1` [Ravoxertinib], for which the values for the drug sensitivity score in experiment [1], in experiment [2] and in experiment [3] were 0, 0 and 0.2, respectively.

Turning to `CNC(=O)c1cc(Oc2ccc(NC(=O)Nc3ccc(Cl)c(C(F)(F)F)c3)c(F)c2)ccn1` [Regorafenib], the drug sensitivity score in experiment [1] is 3.2; in experiment [2], 3.2; in experiment [3], 5.6.

Take `CCOC(=O)C1=CCCC[C@H]1S(=O)(=O)Nc1ccc(F)cc1Cl` [Resatorvid]: the drug sensitivity score in experiment [1], in experiment [2] and in experiment [3] was 0 each time.

On to `CCOCc1nc2c(N)nc3ccccc3c2n1CC(C)(C)O` [Resiquimod], for which the drug sensitivity score in experiment [1], in experiment [2] and in experiment [3] was 0 throughout.

On to `CN(C)Cc1ccc(S(=O)(=O)n2ccc(/C=C/C(=O)NO)c2)cc1` [Resminostat], for which the drug sensitivity score in experiment [1] came out at 5; in experiment [2] it was 8.8; in experiment [3], 10.4.

Turning to `CN(C)C(=O)c1cc2cnc(Nc3ccc(N4CCNCC4)cn3)nc2n1C1CCCC1` [Ribociclib], the figures for the drug sensitivity score in experiment [1], in experiment [2] and in experiment [3] were 0, 0.8 and 1.6, respectively.

With `CO[C@H]1C[C@@H]2CC[C@@H](C)[C@@](O)(O2)C(=O)C(=O)N2CCCC[C@H]2C(=O)O[C@H]([C@H](C)C[C@@H]2CC[C@@H](OP(C)(C)=O)[C@H](OC)C2)CC(=O)[C@H](C)/C=C(\C)[C@@H](O)[C@@H](OC)C(=O)[C@H](C)C[C@H](C)/C=C/C=C/C=C/1C` [Ridaforolimus], the drug sensitivity score was 0 in experiment [1], 0.6 in experiment [2] and 9.8 in experiment [3].

As to `COc1cc(OC)c(/C=C/S(=O)(=O)Cc2ccc(OC)c(NCC(=O)O)c2)c(OC)c1` [Rigosertib], the drug sensitivity score in experiment [1] was 24; in experiment [2], 26.5; in experiment [3] it was 26.8.

Regarding `C[C@H]1CNCCCN1S(=O)(=O)c1cccc2cncc(F)c12` [Ripasudil], the drug sensitivity score in experiment [1], in experiment [2] and in experiment [3] was 0 each time.

Consider `C=CC(=O)Nc1cccc(Nc2nc(Nc3ccc(N4CCN(C(C)=O)CC4)cc3OC)ncc2C(F)(F)F)c1` [Rociletinib], for which the drug sensitivity score in experiment [1] came out at 6.9; in experiment [2], 6.7; in experiment [3] it was 10.4.

For `O=C(CCCCCCNC(=O)c1cnc(N(c2ccccc2)c2ccccc2)nc1)NO` [Rocilinostat], the drug sensitivity score in experiment [1] stood at 4.5; in experiment [2], 4.9; in experiment [3], 7.2.

With `C/C=C1\NC(=O)[C@H]2CSSCC/C=C/[C@H](CC(=O)N[C@H](C(C)C)C(=O)N2)OC(=O)[C@H](C(C)C)NC1=O` [Romidepsin], the drug sensitivity score in experiment [1] is 18.1; in experiment [2], 19.7; in experiment [3], 24.9.

As to `Cc1nc(C(=O)NCC(=O)O)c(O)c2ccc(Oc3ccccc3)cc12` [Roxadustat], the drug sensitivity score in experiment [1], in experiment [2] and in experiment [3] was 0 each time.

As for `CN(C)C[C@@H]1CCn2cc(c3ccccc32)C2=C(C(=O)NC2=O)c2cn(c3ccccc23)CCO1` [Ruboxistaurin], the drug sensitivity score is 5.8 in experiment [1], 5.5 in experiment [2] and 5.8 in experiment [3].

As to `CNCc1ccc(-c2[nH]c3cc(F)cc4c3c2CCNC4=O)cc1` [Rucaparib], the drug sensitivity score in experiment [1], in experiment [2] and in experiment [3] was 0 throughout.

Source of the values: the supplement of paper PMC11003180.
